Data on 31 compounds can be found in patent US20230203025A1, “ENHANCERS OF PARTICULATE GUANYLYL CYCLASE RECEPTOR A” (Mayo Foundation for Medical Education and Research, priority 2020, published 2023).

The structures appear in SMILES notation. Where “and” joins values, the source holds several entries; their conditions need not be identical. Identical values can stand only once.

For series [1], the system named is primary human cardiomyocytes (HCMs). The series is described as follows: inhibition of TGF-beta 1 induced human cardiomyocyte hypertrophy. The following applies: TGF-β1 5 ng/mL. It counts as cell-based. Here is the method: Methods (Inhibition of Human Cardiac Hypertrophy In Vitro): primary human cardiomyocytes (HCMs) were grown in growth media to 50% confluence and then were subjected to serum starvation for 24 hrs. After that, 5 ng/mL of the cytokine TGFβ-1 (R&D Systems) was added to the media for 48 hrs to induce HCM hypertrophy. […] Normal cell buffer served as a vehicle only control, where TGFP-1 alone served as the positive control. Analysis for cell surface area (μm^2) was performed using the ImageJ software at the end of the study.
Results: to further support the cGMP generation in human primary cells leads to favorable biological GC-A mediated, the anti-hypertrophic effects were assessed of Compound 19 on live HCMs stressed with TGF-β1 (5 ng/mL), using a state-of-the-art live cell imaging platform (IncuCyte System).

The target of a further series is T1, pGC-A (Homo sapiens, UniProt P16066).
T1 construct: expressed in transfected cells; host or cells: HEK293
T1 sequence (P16066 33-1061): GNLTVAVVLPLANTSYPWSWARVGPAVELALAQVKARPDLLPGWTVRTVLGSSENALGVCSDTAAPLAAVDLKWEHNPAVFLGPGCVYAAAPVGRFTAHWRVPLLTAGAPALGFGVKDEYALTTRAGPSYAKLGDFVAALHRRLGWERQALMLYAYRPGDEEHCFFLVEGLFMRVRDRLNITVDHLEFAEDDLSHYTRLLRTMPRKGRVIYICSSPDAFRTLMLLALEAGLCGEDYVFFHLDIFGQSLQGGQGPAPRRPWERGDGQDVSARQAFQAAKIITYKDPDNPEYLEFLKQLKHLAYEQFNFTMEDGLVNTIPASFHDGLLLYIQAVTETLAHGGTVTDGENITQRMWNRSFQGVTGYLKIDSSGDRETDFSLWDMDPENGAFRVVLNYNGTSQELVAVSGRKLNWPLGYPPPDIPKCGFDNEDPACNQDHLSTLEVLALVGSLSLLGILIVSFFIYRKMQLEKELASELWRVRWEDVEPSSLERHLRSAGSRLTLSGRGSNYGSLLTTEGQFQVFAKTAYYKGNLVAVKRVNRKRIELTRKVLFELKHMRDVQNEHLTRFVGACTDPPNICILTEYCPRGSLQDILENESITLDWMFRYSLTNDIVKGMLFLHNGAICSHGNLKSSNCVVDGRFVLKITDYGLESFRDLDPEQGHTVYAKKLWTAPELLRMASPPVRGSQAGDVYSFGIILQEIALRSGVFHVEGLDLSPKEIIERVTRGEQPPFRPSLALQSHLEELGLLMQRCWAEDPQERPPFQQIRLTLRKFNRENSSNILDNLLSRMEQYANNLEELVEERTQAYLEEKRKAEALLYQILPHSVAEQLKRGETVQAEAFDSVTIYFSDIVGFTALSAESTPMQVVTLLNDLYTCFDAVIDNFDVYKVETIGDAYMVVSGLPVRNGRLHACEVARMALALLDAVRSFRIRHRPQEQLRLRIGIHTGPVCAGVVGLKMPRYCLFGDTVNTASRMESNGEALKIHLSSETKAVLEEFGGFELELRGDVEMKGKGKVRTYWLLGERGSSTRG
T1 sequence (P01160 124-151 partner limits assumed): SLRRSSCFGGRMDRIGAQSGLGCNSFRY
The series is described as follows: cGMP production by HTRF in HEK293 cells overexpressing pGC-A. The note with it: for Emax: HEK293, cGMP normalized to maximal amount produced by an EC80 concentration of ANP, read-out: Max efficacy; for EC50: HEK293 pGC-A cells, cGMP HTRF, in the presence of EC20 concentration of ANP. It is filed as cell-based. Here is the method:
Assay details: 20 nL of 10 μM test compound in DMSO was added to columns 5-48 of 1536 well white high base screening plates (Corning, New York, N.Y.) cells using 550 ECHO acoustic dispenser (Labcyte, San Jose, Calif.). […] HEK293 cells overexpressing GC-A were resuspended in assay media (OptimMem media containing 2% Heat-inactivated Fetal bovine serum and L-glutamine) at a density of 6×10^5 cells/mL and 2 μL were plated in screening plates (1200 cells/well) in suspension using a Bioraptr 2. Plates were spun at 1000 rpm for 1 min and incubated for 30 min at room temperature. 1.5 μL d2-labled cGMP followed by 1.5 uL Eu^3+ cryptate-labeled anti-cGMP cGMP detection kit (CiBio; #62GM2PEC) prepared according to manufacturer's protocol were added to all wells using a Bioraptr 2 and TR-FRET signal was detected on an EnVision detector (PerkinElmer).

The nature of series [2]: rodent microsomal stability. It is filed as in vitro ADME. The note with it: FIG. 3.
The nature of the next series: in vitro solubility. It counts as physicochemical. The note with it: FIG. 3.

As for `CC[C@H](C)[C@@H]1NC(=O)[C@H](CCCNC(=N)N)NC(=O)[C@H](CC(=O)O)NC(=O)[C@H](CCSC)NC(=O)[C@H](CCCNC(=N)N)NC(=O)CNC(=O)CNC(=O)[C@H](Cc2ccccc2)NC(=O)[C@@H](NC(=O)[C@H](CO)NC(=O)[C@H](CO)NC(=O)[C@H](CCCNC(=N)N)NC(=O)[C@H](CCCNC(=N)N)NC(=O)[C@H](CC(C)C)NC(=O)[C@@H](N)CO)CSSC[C@@H](C(=O)N[C@@H](CC(N)=O)C(=O)N[C@@H](CO)C(=O)N[C@@H](Cc2ccccc2)C(=O)N[C@@H](CCCNC(=N)N)C(=O)N[C@@H](Cc2ccc(O)cc2)C(=O)O)NC(=O)CNC(=O)[C@H](CC(C)C)NC(=O)CNC(=O)[C@H](CO)NC(=O)[C@H](CCC(N)=O)NC(=O)[C@H](C)NC(=O)CNC1=O` [ANP, reference compound], the “inhibition of HCM hypertrophy” value in series [1] (ANP 10^−8 M alone) was “significant inhibition”; in series [1] (ANP 10^−10 M alone) it was “no effect”.
As for `CC(C)(C)C(=O)N1CCC(C(=O)Nc2nc3c(F)cc(F)cc3s2)CC1` [Compound 1], on pGC-A, the Emax was determined as 83%; the EC50 (as a rule, the concentration needed to bring the measured effect to its halfway point) is 2180 nM and 1380 nM and 1570 nM. The “potency compared to compound A” value at pGC-A (HEK pGC-A cGMP, FIG. 2-3) is reported as “improved potency”. Besides, the Max efficacy at pGC-A (cGMP normalized to maximal amount produced by an EC80 concentration of ANP) was 76% and 77%. Besides, in series [2], the “rodent microsomal stability compared to compound A” value was “improved”. In “in vitro solubility”, the “solubility compared to compound A” value is on record as “improved”.
For the compound `O=C(Nc1nc2c(F)cc(F)cc2s1)C1CCN(C(=O)C2CCC2)CC1` [Compound 2], at pGC-A, the Emax is 79% and the EC50 came to 1720 nM.
The like results for `CC(=O)N1CCC(C(=O)Nc2nc3c(F)cc(F)cc3s2)CC1` [Compound 3] were, in that order, 74% and 1150 nM.
Regarding `CC(C)N1CCC(C(=O)Nc2nc3c(F)cc(F)cc3s2)CC1` [Compound 4], on pGC-A, the Emax worked out at 80% and the EC50 came to 840 nM.
Take `CC(C)(C)C(=O)N1CCC(C(=O)Nc2nc3c(Cl)ccc(Cl)c3s2)CC1` [Compound 5]: on pGC-A, the EC50 was over 66000 nM.
For the compound `CC(C)(C)C(=O)N1CCC(C(=O)Nc2nc3c(Cl)cccc3s2)CC1` [Compound 6], on pGC-A, the Emax was found to be 51% and the EC50 amounted to 2000 nM.
With `CC(C)(C)OC(=O)N1CCCC(C(=O)Nc2nc3c(F)cc(F)cc3s2)C1` (centres unmarked) [Compound 7], on pGC-A, the Emax is 64% and the EC50 was 8260 nM.
Take `CC(C)(C)C(=O)N1CCCC(C(=O)Nc2nc3c(F)cc(F)cc3s2)C1` (centres unmarked) [Compound 8]: on pGC-A, the Emax came to 73% and the concentration giving a half-maximal response (EC50) turned out to be 5070 nM.
For the compound `O=C(Nc1nc2c(F)cc(F)cc2s1)C1CCCN(C(=O)C2CC2)C1` (centres unmarked) [Compound 9], at pGC-A, the Emax was determined as 82% and the EC50 turned out to be 1970 nM.
The like results for `O=C(Nc1nc2c(F)cc(F)cc2s1)C1CCCN(C(=O)C2CCC2)C1` (centres unmarked) [Compound 10] were, in that order, 77% and 1810 nM.
With `CC(=O)N1CCCC(C(=O)Nc2nc3c(F)cc(F)cc3s2)C1` (centres unmarked) [Compound 11], at pGC-A, the Emax is 79% and the EC50 was 1650 nM.
As for `O=C(Nc1nc2c(F)cc(F)cc2s1)C1CCCN(C(=O)c2ccccc2)C1` (centres unmarked) [Compound 12], at pGC-A, the Emax was 64% and the EC50 came to 3360 nM.
For `CC(C)(C)CC(=O)N1CCCC(C(=O)Nc2nc3c(F)cc(F)cc3s2)C1` (centres unmarked) [Compound 13], at pGC-A, the Emax came out at 74% and the EC50 is 3570 nM.
Consider `O=C(Nc1nc2c(F)cc(F)cc2s1)C1CCCN(C(=O)Cc2ccccc2)C1` (centres unmarked) [Compound 14], for which, on pGC-A, the Emax turned out to be 71% and the EC50 turned out to be 2020 nM.
The like results for `CS(=O)(=O)N1CCCC(C(=O)Nc2nc3c(F)cc(F)cc3s2)C1` (centres unmarked) [Compound 15] were, in that order, 77% and 1750 nM.
The like results for `O=C(Nc1nc2c(F)cc(F)cc2s1)C1CCCN(Cc2ccccc2)C1` (centres unmarked) [Compound 16] were, in that order, 66% and 2410 nM.
As for `CN1CCCC(C(=O)Nc2nc3c(F)cc(F)cc3s2)C1` (centres unmarked) [Compound 17], on pGC-A, the Emax was 81% and the EC50 is 1230 nM.
In the case of `O=C(Nc1nc2c(F)cc(F)cc2s1)C1CCCNC1` (centres unmarked) [Compound 18], at pGC-A, the Emax worked out at 82% and the EC50 was determined as 1050 nM.
As for `CC(C)(C)OC(=O)N1CCC(C(=O)Nc2nc3c(F)cc(F)cc3s2)C1` (centres unmarked) [Compound 20], on pGC-A, the Emax was found to be 74% and the EC50 amounted to 4380 nM.
Turning to `CC(C)(C)C(=O)N1CCC(C(=O)Nc2nc3c(F)cc(F)cc3s2)C1` (centres unmarked) [Compound 21], at pGC-A, the Emax worked out at 84% and the EC50 is 2090 nM.
The like results for `O=C(Nc1nc2c(F)cc(F)cc2s1)C1CCN(C(=O)C2CC2)C1` (centres unmarked) [Compound 22] were, in that order, 82% and 6250 nM.
As to `O=C(Nc1nc2c(F)cc(F)cc2s1)C1CCN(C(=O)C2CCC2)C1` (centres unmarked) [Compound 23], on pGC-A, the Emax stood at 82% and the EC50 came out at 6060 nM.
For `CC(=O)N1CCC(C(=O)Nc2nc3c(F)cc(F)cc3s2)C1` (centres unmarked) [Compound 24], at pGC-A, the Emax was determined as 84% and the EC50 is 560 nM.
As to `O=C(Nc1nc2c(F)cc(F)cc2s1)C1CCN(C(=O)c2ccccc2)C1` (centres unmarked) [Compound 25], on pGC-A, the Emax was 84% and the EC50 came to 6860 nM.
On to `CC(C)(C)CC(=O)N1CCC(C(=O)Nc2nc3c(F)cc(F)cc3s2)C1` (centres unmarked) [Compound 26], for which, on pGC-A, the Emax turned out to be 81% and the concentration for a half-maximal effect (EC50) is 3230 nM.
Turning to `O=C(Nc1nc2c(F)cc(F)cc2s1)C1CCN(C(=O)Cc2ccccc2)C1` (centres unmarked) [Compound 27], at pGC-A, the Emax came out at 66% and the EC50 amounted to 2690 nM.
The like results for `CS(=O)(=O)N1CCC(C(=O)Nc2nc3c(F)cc(F)cc3s2)C1` (centres unmarked) [Compound 28] were, in that order, 66% and 990 nM.
With `CN1CCC(C(=O)Nc2nc3c(F)cc(F)cc3s2)C1` (centres unmarked) [Compound 30], on pGC-A, the Emax amounted to 84% and the EC50 amounted to 1790 nM.
On to `O=C(Nc1nc2c(F)cc(F)cc2s1)C1CCNC1` (centres unmarked) [Compound 31], for which, at pGC-A, the Emax stood at 84% and the EC50 was determined as 1570 nM.
For the compound `CN(C)CCN1CCC(C(=O)Nc2nc3c(F)cc(F)cc3s2)C1` (centres unmarked) [Compound 32], on pGC-A, the Emax turned out to be 81% and the EC50 came to 1630 nM.
